Eleven molecules from EP3095787A1, “[…] ACTIVE COMPOUNDS AS DAG-LIPASE INHIBITORS” (Universiteit Leiden, priority 2015, dated 2016) can be followed below.

Assay [1] deals with serine hydrolases. Kind of assay: Comparative and competitive gel ABPP selectivity in mouse brain membrane proteome (TAMRA-FP and MB064). Particulars: 1 µM; including ABHD6 and ABHD12. It is filed as biochemical. The procedure:
(§1) For gel based ABPP experiments mouse brain proteome (2.0 mg/mL, 20 µL) was preincubated for 30 min with vehicle (DMSO) or compound to be tested in 0.5 µL DMSO at rt. And subsequently treated with 500 nM (final concentration) TAMRA-FP (TAMRA-FP was bought at Thermo Fischer) for 15 minutes at rt. The reactions were quenched with 10 µL standard 3 x SDS page sample buffer. The samples were directly loaded and resolved on SDS page gel (10 % acrylamide). The gels were scanned with a ChemiDoc MP sytem (Biorad, Cy 3 settings, 605/50 filter) and analyzed using Image Lab 4.1.
To investigate the selectivity of compound 25 in the mouse brain proteome comparative and competitive ABPP was used with a broad-spectrum FP-based probe (TAMRA-FP) and the tailored DAGL-α ABP MB064. As a reference the widely used β-lactone-based DAGL-inhibitors THL and OMDM-188, two broad-spectrum covalent and irreversible serine hydrolase inhibitors, were firstly tested.

Assay [2] concerns the target T1, hDAGL-α (Homo sapiens, UniProt Q9Y4D2).
T1 sequence (Q9Y4D2 1-1042): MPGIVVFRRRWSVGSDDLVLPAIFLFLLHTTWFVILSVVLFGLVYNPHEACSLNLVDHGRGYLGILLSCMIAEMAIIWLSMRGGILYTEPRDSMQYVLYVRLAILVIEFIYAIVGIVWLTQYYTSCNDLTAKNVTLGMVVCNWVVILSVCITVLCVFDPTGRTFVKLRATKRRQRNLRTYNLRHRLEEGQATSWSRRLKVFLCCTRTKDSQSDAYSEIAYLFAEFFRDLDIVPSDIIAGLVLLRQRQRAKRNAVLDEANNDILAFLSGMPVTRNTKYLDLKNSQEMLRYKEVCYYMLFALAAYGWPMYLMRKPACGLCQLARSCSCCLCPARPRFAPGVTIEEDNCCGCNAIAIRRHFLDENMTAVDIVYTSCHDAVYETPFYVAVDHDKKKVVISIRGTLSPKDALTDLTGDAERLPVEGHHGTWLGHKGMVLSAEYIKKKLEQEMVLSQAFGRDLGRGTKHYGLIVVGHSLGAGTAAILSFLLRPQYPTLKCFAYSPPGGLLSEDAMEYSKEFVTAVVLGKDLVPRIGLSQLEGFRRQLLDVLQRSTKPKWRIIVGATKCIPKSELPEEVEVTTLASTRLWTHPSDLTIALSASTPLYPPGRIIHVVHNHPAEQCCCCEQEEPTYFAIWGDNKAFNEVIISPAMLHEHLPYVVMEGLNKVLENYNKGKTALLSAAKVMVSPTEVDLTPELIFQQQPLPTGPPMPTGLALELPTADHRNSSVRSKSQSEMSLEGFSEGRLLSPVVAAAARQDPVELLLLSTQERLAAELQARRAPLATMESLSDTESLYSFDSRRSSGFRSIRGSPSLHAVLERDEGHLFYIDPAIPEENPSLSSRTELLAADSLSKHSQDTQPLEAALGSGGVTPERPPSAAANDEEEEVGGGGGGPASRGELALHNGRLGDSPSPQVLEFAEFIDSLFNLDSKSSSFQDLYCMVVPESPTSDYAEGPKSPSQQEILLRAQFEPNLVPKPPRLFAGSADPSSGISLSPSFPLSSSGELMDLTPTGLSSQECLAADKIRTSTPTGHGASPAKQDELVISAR
Kind of assay: Biochemical hDAGL-α activity assay (PNP-butyrate hydrolysis, 96 well plate). On the set-up: expressed in transfected cells; host or cells: HEK293T (transient), membrane fraction. To be noted: PNP-butyrate 0.3 mM, membranes of HEK293T cells transfected with hDAGL-α; for IC50: read-out: DAGL-α Activity assay pIC50 (converted). The procedure:
The biochemical hDAGL-α activity assay is based on the hydrolysis of para-nitrophenylbutyrate (PNP-butyrate) by membrane preparations from HEK293T cells transiently transfected with hDAGL-α. 200 µL reactions were performed in flat bottom Greiner 96-wells plates in a 50 mM pH 7.2 Hepes buffer. Membrane protein fractions from HEK293T cells transiently transfected with hDAGL-α (0.05 µg/µL final concentration) were used as hDAGL-α source. Compounds to be tested were introduced in 5 µL DMSO. The mixtures were incubated for 30 minutes before 5.0 µL 12 mM PNP-butyrate (final concentration 0.3 mM) in DMSO was added (final DMSO concentration 5.0%). Kinetics were followed immediately after addition of PNP-butyrate on a plate reader (TECAN GENios® microplate reader), by measuring the OD420 every 60 seconds, for 20 minutes at 37°C. The slope of the linear region from 5-15 minutes was determined, and all experiments were performed at N = 2, n = 2 for experimental measurements and N = 2, n = 4 for controls.
Data analysis: Z'-factor of each plate was determined for the validation of each experiment, using the following formula Z' = 1-3(σpc + σnc)/(µpc - µnc). The slope from 5-15 minutes of the positive control (pc: hDAGL-α, DMSO), and the negative control (nc: Mock, DMSO) was used. Plates were accepted for further analysis when Z' > 0.6. Kinetic measurements were corrected for the average absorption of the negative control (mock, DMSO). The slope of the linear region from 5-15 minutes was determined. The average, standard deviation (SD) and standard error of mean (SEM) were calculated and normalized to the corrected positive control. Data was exported to Graphpad Prism 5.0 for the calculation of the pIC50 using a nonlinear dose-response analysis.

In assay [3] the target is T2, FAAH (Mus musculus, UniProt O08914).
T2 construct: For gel based ABPP experiments mouse brain proteome (2.0 mg/mL, 20 µL) was preincubated; from tissue; host or cells: mouse brain proteome
T2 sequence (O08914 1-579): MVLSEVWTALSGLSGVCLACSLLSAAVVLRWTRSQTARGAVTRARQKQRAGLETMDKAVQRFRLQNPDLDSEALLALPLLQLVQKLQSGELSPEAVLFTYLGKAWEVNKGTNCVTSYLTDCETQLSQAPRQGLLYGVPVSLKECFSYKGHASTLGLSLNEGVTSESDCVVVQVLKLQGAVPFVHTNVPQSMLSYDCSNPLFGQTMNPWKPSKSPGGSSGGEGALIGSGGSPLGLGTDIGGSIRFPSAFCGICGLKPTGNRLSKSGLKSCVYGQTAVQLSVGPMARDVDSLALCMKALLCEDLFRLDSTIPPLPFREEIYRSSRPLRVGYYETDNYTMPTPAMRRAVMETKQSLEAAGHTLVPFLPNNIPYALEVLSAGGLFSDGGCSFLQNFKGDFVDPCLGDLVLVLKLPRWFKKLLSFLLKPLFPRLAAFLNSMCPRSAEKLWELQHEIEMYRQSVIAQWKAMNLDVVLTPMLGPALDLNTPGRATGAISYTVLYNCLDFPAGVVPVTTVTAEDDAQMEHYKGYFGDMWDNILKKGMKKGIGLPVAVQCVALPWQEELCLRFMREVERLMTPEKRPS
The assay can be described thus: Gel based competitive ABPP selectivity assay with TAMRA-FP in mouse brain proteome (FAAH band). To be noted: 10 µM inhibitor; TAMRA-FP 500 nM; mouse brain proteome; vehicle set to 100%. The format is biochemical. The procedure: as §1
The percentage effect on FAAH was determined by measuring the integrated optical intensity of the band corresponding to FAAH (∼ 63 kD for mouse) using Image lab software. This activity was corrected for the total protein loading per lane as determined by coomassie staining and imaging with a ChemiDoc™ MP sytem (Biorad) followed by determination of the integrated optical intensity per lane by using Image Lab 4.1 software. The intensity of the protein bands from the samples treated with vehicle was set to 100%. […] N/A means less than 50% probe displacement at 10 µM inhibitor concentration.

In assay [4] the target is T1, hDAGL-α. The assay can be described thus: Mode of action (reversibility) experiment: size exclusion chromatography, then MB064 labeling. It is filed as biochemical. Particulars: pre-incubation at IC80 concentration; remaining activity visualized with MB064; n=3. On the set-up: expressed in transfected cells. The procedure:
To determine the mode of action (reversible versus irreversible) of the inventive compounds, an experiment in which human DAGL-α membranes were pre-incubated at the IC80 concentration of compound 25 or the irreversible DAGL inhibitor KT-109 was performed.

For `CCCCCCCCCCC[C@@H](C[C@@H]1OC(=O)[C@H]1CCCCCC)OC(=O)[C@H](CC(C)C)NC=O` [THL, Tetrahydrolipstatin, reference compound], the “number of serine hydrolases whose labeling is blocked” value in assay [1] was “at least 4”.

As to `Cc1ccccc1-c1cc(F)c2nc(C(=O)CCCCCc3ccccc3)oc2c1` [Compound 33, 1-(4-fluoro-6-(o-tolyl)benzo[d]oxazol-2-yl)-6-phenylhexan-1-one], the IC50 in assay [2] was 1.32 nM. For the same molecule, in assay [3], the “FAAH ABPP (10 µm) % Eff.” value was “N/A (N/A means less than 50% probe displacement at 10 µM inhibitor concentration)”. As for `CCCCCCCCCCC[C@@H](C[C@@H]1OC(=O)[C@H]1CCCCCC)OC(=O)[C@@H](NC=O)[C@@H](C)CC` [OMDM-188, reference compound], the “number of serine hydrolases whose labeling is blocked” value in assay [1] is reported as “at least 4”. As to “1-(4-fluoro-6-(2-fluorophenyl)benzo[d]oxazol-2-yl)-6-phenylhexan-1-one [Compound 31]”, the “DAGL-α Activity assay pIC50” value in assay [2] came out at 8.6. Moreover, the “FAAH ABPP (10 µm) % Eff.” value in assay [3] is reported as “N/A (N/A means less than 50% probe displacement at 10 µM inhibitor concentration)”. `Cc1ccc(-c2cnc3nc(C(=O)CCc4ccccc4Oc4ccccc4)oc3c2)cc1` [Compound 26, 3-(2-phenoxyphenyl)-1-(6-(p-tolyl)oxazolo[4,5-b]pyridin-2-yl)propan-1-one]: in assay [2], the IC50 was 8.32 nM. In addition, the “FAAH ABPP (10 µm) % Eff.” value in assay [3] was “N/A (N/A means less than 50% probe displacement at 10 µM inhibitor concentration)”.

As to `Cc1ccc(-c2cnc3nc(C(=O)CCc4ccc(Oc5ccc(C(F)(F)F)cn5)cc4)oc3c2)cc1` [Compound 29, 1-(6-(p-Tolyl)oxazolo[4,5-b]pyridin-2-yl)-3-(4-((5-(trifluoromethyl)pyridin-2-yl)oxy)phenyl)propan-1-one], the IC50 in assay [2] was 0.851 nM. Also, the “FAAH ABPP (10 µm) % Eff.” value in assay [3] is “N/A (N/A means less than 50% probe displacement at 10 µM inhibitor concentration)”. With `Cc1ccc(-c2cc(F)c3nc(C(=O)CCCCCc4ccccc4)oc3c2)cc1` [Compound 32, 1-(4-fluoro-6-(p-tolyl)benzo[d]oxazol-2-yl)-6-phenylhexan-1-one], the IC50 in assay [2] is 1.41 nM. In addition, the “FAAH ABPP (10 µm) % Eff.” value in assay [3] is reported as “N/A (N/A means less than 50% probe displacement at 10 µM inhibitor concentration)”. For `O=C(N1CCCCC1Cc1ccccc1)n1cc(-c2ccc(-c3ccccc3)cc2)nn1` (stereo not shown) [KT-109, reference compound], the “recovery of DAGL-α activity after size exclusion chromatography” value in assay [4] is on record as “No recovery of DAGL-α activity”.

With `O=C(CCCCCc1ccccc1)c1nc2c(F)cc(-c3ccc(F)cc3)cc2o1` [Compound 30, 1-(4-fluoro-6-(4-fluorophenyl)benzo[d]oxazol-2-yl)-6-phenylhexan-1-one], the IC50 in assay [2] was 5.01 nM. Besides, the “FAAH ABPP (10 µm) % Eff.” value in assay [3] is reported as “N/A (N/A means less than 50% probe displacement at 10 µM inhibitor concentration)”. On to `Cc1ccc(-c2cnc3nc(C(=O)CCc4ccc(Oc5ccccc5)cc4)oc3c2)cc1` [Compound 28, 3-(4-phenoxyphenyl)-1-(6-(p-tolyl)oxazolo[4,5-b]pyridin-2-yl)propan-1-one], for which the IC50 in assay [2] was 5.13 nM. The “FAAH ABPP (10 µm) % Eff.” value in assay [3] is reported as “N/A (N/A means less than 50% probe displacement at 10 µM inhibitor concentration)”. With `Cc1ccc(-c2cnc3nc(C(=O)CCc4cccc(Oc5ccccc5)c4)oc3c2)cc1` [Compound 27, 3-(3-Phenoxyphenyl)-1-(6-(p-tolyl)oxazolo[4,5-b]pyridin-2-yl)propan-1-one], the IC50 in assay [2] is 3.72 nM. The “FAAH ABPP (10 µm) % Eff.” value in assay [3] was “N/A (N/A means less than 50% probe displacement at 10 µM inhibitor concentration)”.
